A short description of series [1]: Lipophilicity, log P of the compound. The settings on record: octanol/water.
Series [2] can be described thus: Distribution coefficient, log D of the compound. The settings on record: octanol/water.
Series [3] relates to K562. Nature of the series: Antiproliferative activity against Homo sapiens (human) K562 cells after 48 hr by MTT assay. The settings on record: K562, 48 h. It is filed as functional, cell-based.

In turn, `O=P1(N(CCCl)CCCl)NCCCO1` (stereo unspecified) [CYCLOPHOSPHAMIDE ANHYDROUS] gave a logP in series [1] of 1.12. The compound also displayed a pH-dependent lipophilicity (logD) in series [2] of 0.05.
`CC1(C)CNP(=O)(NC(=O)c2cccc([N+](=O)[O-])c2)NC1` came in with a logP in series [1] of 0.34. In addition, the logD in series [2] was -0.03. This compound also had an IC50 in series [3] of 5.08 µM.
For `CC1(C)CNP(=O)(NC(=O)c2ccccc2[N+](=O)[O-])NC1` the same measures were 0.34, -0.04 and 6.87 µM.
For `CC1(C)CNP(=O)(Nc2ccc(S(N)(=O)=O)cc2)NC1` the same measures were -0.78, -1 and 58.2 µM.
The like results for `CC1(C)CNP(=O)(NC(=O)c2ccc([N+](=O)[O-])cc2)NC1` were, in that order, 0.34, -0.03 and 6.49 µM.
For the compound `Cc1ccc(OP2(=O)NCC(C)(C)CN2)cc1`, the logP in series [1] came to 1.55. In series [2], this compound yielded a logD of 0.73.

Broadly, the logP is a log measure of how a compound divides between an organic and an aqueous phase. A low value points to a more hydrophilic compound. By logD is commonly meant lipophilicity at a set pH, counting ionised and neutral species. Low values mean lower lipophilicity, high ones higher lipophilicity. The term IC50 denotes the concentration that inhibits the measured activity by half. Low readings indicate greater potency, high ones weaker potency.
